{"source": "paper PMC8954540", "about": "“A New Class of PSMA-617-Based Hybrid Molecules for Preoperative Imaging and Intraoperative Fluorescence Navigation of Prostate Cancer” (Pharmaceuticals, 2022)", "key": {"[1]": {"system": "PC-3 tumor xenografts", "experiment": "Small-animal PET/MRI proof-of-concept, PSMA-negative xenograft", "type": "in vivo, mice", "conditions": "0.5 nmol, PSMA-negative PC-3 xenograft, n = 1", "experimental": "(§1) For the proof-of-concept imaging study, 0.5 nmol of the ^68Ga-labeled compound in 0.9% NaCl (pH 7) were injected into the tail vein under anesthesia (2% isoflurane, n = 1). PET/MRI was performed with a 3T PET/MRI scanner (Bruker, Ettlingen, Germany). For MR imaging, a nontriggered localizer followed by a T1-weighted 3D scan was applied. For PET imaging, a dynamic scan for 60 min and a static scan (20 min) at 2 h p.i. was recorded. Image reconstruction was done with ParaVision software (dynamic scan: MLEM 0.5 mm algorithm, 12 iterations; static scan: OSEM 0.25 mm algorithm, 1 iteration), and data analysis was conducted in PMOD (version 3.7) with data converted to SUV images. After PET/MRI, the mice were sacrificed, and optical imaging of the subcutaneous tumor and organs of interest was performed with the Odyssey CLx system (LI-COR Biosciences, excitation wavelength 800 nm)."}, "[2]": {"system": "LNCaP xenograft mouse model", "experiment": "Small-animal PET/MRI proof-of-concept, PSMA-positive xenograft", "type": "in vivo, mice", "experimental": "(§2) Biodistribution and proof-of-concept imaging studies were performed in an experimental tumor xenograft model. A total of 5 × 10^6 cells of LNCaP (in 50% Matrigel; Becton Dickinson, Franklin Lakes, NJ, USA) were subcutaneously inoculated into the flank of 7- to 8-week-old male BALB/c nu/nu mice (Charles River, Wilmington, MA, USA/Janvier Labs, Le Genest-Saint-Isle, France).\nas §1"}, "[3]": {"system": "LNCaP-tumor bearing BALB/c nu/nu mice", "experiment": "Biodistribution (organ distribution) in tumor xenograft model", "type": "in vivo", "conditions": "0.06 nmol; for Organ distribution Blood / Organ distribution Brain / Organ distribution Heart / Organ distribution Intestine / Organ distribution Kidney / Organ distribution Liver / Organ distribution Lung / Organ distribution Muscle / Organ distribution Spleen / Organ distribution Tumor: n=3", "experimental": "as §2\nFor biodistribution studies, 60 pmol of ^68Ga-labeled PSMA-927 were injected into the tail vein (1–3 MBq, n = 3). The animals were sacrificed at 1 and at 2 h p.i., and organs of interest were dissected, blotted dry, and weighed. Finally, the radioactivity was measured using a gamma counter and calculated as % ID/g."}, "[4]": {"system": "LNCaP cells", "experiment": "Specific cell surface binding and internalization of 68Ga-labeled compounds", "type": "cell-based", "experimental": "LNCaP cells (CRL-1740; ATCC; PSMA-positive) and PC-3 cells (CRL-1435; ATCC; PSMA-negative) were cultured in RPMI medium (Thermo Fisher Scientific, Waltham, MA, USA) supplemented with 10% fetal calf serum and 2 mmol/L L-glutamine (all from (Thermo Fisher Scientific, Waltham, MA, USA) ) at 37 °C in humidified air with 5% CO2. Cells were harvested using trypsin-ethylenediaminetetraacetic acid (trypsin-EDTA; 0.25% trypsin, 0.02% EDTA, Invitrogen, Waltham, MA, USA). Cell line authentication was regularly performed. Binding affinities and internalization profiles of the ^68Ga-labeled compounds were determined in competitive cell binding assays and internalization experiments as described previously."}, "[5]": {"system": "human serum albumin", "set-up": "method as in PMID 942422, PMID 11325049", "conditions": "cited from earlier work"}}, "data": [{"compound": "CC1(C)C(=CC=C2CCCC(C=CC3=[N+](CCCCCC(=O)NCCCCC(NC(=O)CN4CCN(CC(=O)[O-])CCN(CC(=O)[O-])CCN(CC(=O)[O-])CC4)C(=O)NCC4CCC(C(=O)NC(Cc5ccc6ccccc6c5)C(=O)NCCCCC(NC(=O)NC(CCC(=O)O)C(=O)O)C(=O)O)CC4)c4ccc(S(=O)(=O)[O-])cc4C3(C)C)=C2Oc2ccc(S(=O)(=O)O)cc2)N(CCCCS(=O)(=O)O)c2ccc(S(=O)(=O)O)cc21.[68Ga+3]", "note": "(stereo not drawn) [[^68Ga]Ga-PSMA-927, 68Ga-Glu-urea-Lys-2-Nal-Chx-Lys(IRDye800CW)-DOTA]", "values": [{"measurement": "tumor uptake in PET/MRI", "setting": "[1]", "value": "lack of measurable uptake"}, {"measurement": "tumor uptake in PET/MRI", "setting": "[2]; 0.5 nmol, PSMA-positive LNCaP xenograft, n = 1", "value": "strong and specific tumor uptake"}, {"measurement": "pharmacokinetic profile (clearance)", "setting": "[2]; time activity curves, PET/MRI", "value": "rapid clearance from non-malignant tissue (heart, liver, muscle) via the renal pathway"}, {"measurement": "Tumor-to-Organ ratio Blood", "setting": "[3]; 1 h p.i.", "value": "3.69 ± 0.60"}, {"measurement": "Tumor-to-Organ ratio Brain", "setting": "[3]; 1 h p.i.", "value": "57.84 ± 9.25"}, {"measurement": "Tumor-to-Organ ratio Heart", "setting": "[3]; 1 h p.i.", "value": "8.57 ± 2.07"}, {"measurement": "Tumor-to-Organ ratio Intestine", "setting": "[3]; 1 h p.i.", "value": "10.37 ± 2.47"}, {"measurement": "Tumor-to-Organ ratio Kidney", "setting": "[3]; 1 h p.i.", "value": "0.06 ± 0.01"}, {"measurement": "Tumor-to-Organ ratio Liver", "setting": "[3]; 1 h p.i.", "value": "4.51 ± 0.84"}, {"measurement": "Tumor-to-Organ ratio Lung", "setting": "[3]; 1 h p.i.", "value": "2.84 ± 0.37"}, {"measurement": "Tumor-to-Organ ratio Muscle", "setting": "[3]; 1 h p.i.", "value": "12.23 ± 1.39"}, {"measurement": "Tumor-to-Organ ratio Spleen", "setting": "[3]; 1 h p.i.", "value": "1.76 ± 0.71"}, {"measurement": "Organ distribution Blood", "setting": "[3]; 1 h p.i.", "value": "1.14 ± 0.14", "unit": "%ID/g"}, {"measurement": "Organ distribution Brain", "setting": "[3]; 1 h p.i.", "value": "0.07 ± 0.01", "unit": "%ID/g"}, {"measurement": "Organ distribution Heart", "setting": "[3]; 1 h p.i.", "value": "0.51 ± 0.10", "unit": "%ID/g"}, {"measurement": "Organ distribution Intestine", "setting": "[3]; 1 h p.i.", "value": "0.43 ± 0.12", "unit": "%ID/g"}, {"measurement": "Organ distribution Kidney", "setting": "[3]; 1 h p.i.", "value": "65.64 ± 6.60", "unit": "%ID/g"}, {"measurement": "Organ distribution Liver", "setting": "[3]; 1 h p.i.", "value": "0.95 ± 0.15", "unit": "%ID/g"}, {"measurement": "Organ distribution Lung", "setting": "[3]; 1 h p.i.", "value": "1.47 ± 0.14", "unit": "%ID/g"}, {"measurement": "Organ distribution Muscle", "setting": "[3]; 1 h p.i.", "value": "0.34 ± 0.03", "unit": "%ID/g"}, {"measurement": "Organ distribution Spleen", "setting": "[3]; 1 h p.i.", "value": "2.82 ± 1.19", "unit": "%ID/g"}, {"measurement": "Organ distribution Tumor", "setting": "[3]; 1 h p.i.", "value": "4.13 ± 0.15", "unit": "%ID/g"}, {"measurement": "Tumor-to-Organ ratio Blood", "setting": "[3]; 2 h p.i.", "value": "7.58 ± 1.65"}, {"measurement": "Tumor-to-Organ ratio Brain", "setting": "[3]; 2 h p.i.", "value": "29.37 ± 13.17"}, {"measurement": "Tumor-to-Organ ratio Heart", "setting": "[3]; 2 h p.i.", "value": "14.79 ± 4.40"}, {"measurement": "Tumor-to-Organ ratio Intestine", "setting": "[3]; 2 h p.i.", "value": "11.92 ± 5.17"}, {"measurement": "Tumor-to-Organ ratio Kidney", "setting": "[3]; 2 h p.i.", "value": "0.13 ± 0.06"}, {"measurement": "Tumor-to-Organ ratio Liver", "setting": "[3]; 2 h p.i.", "value": "7.80 ± 3.09"}, {"measurement": "Tumor-to-Organ ratio Lung", "setting": "[3]; 2 h p.i.", "value": "6.11 ± 2.36"}, {"measurement": "Tumor-to-Organ ratio Muscle", "setting": "[3]; 2 h p.i.", "value": "11.55 ± 5.94"}, {"measurement": "Tumor-to-Organ ratio Spleen", "setting": "[3]; 2 h p.i.", "value": "3.60 ± 1.86"}, {"measurement": "Organ distribution Blood", "setting": "[3]; 2 h p.i.", "value": "0.82 ± 0.23", "unit": "%ID/g"}, {"measurement": "Organ distribution Brain", "setting": "[3]; 2 h p.i.", "value": "0.24 ± 0.11", "unit": "%ID/g"}, {"measurement": "Organ distribution Heart", "setting": "[3]; 2 h p.i.", "value": "0.43 ± 0.14", "unit": "%ID/g"}, {"measurement": "Organ distribution Intestine", "setting": "[3]; 2 h p.i.", "value": "0.59 ± 0.26", "unit": "%ID/g"}, {"measurement": "Organ distribution Kidney", "setting": "[3]; 2 h p.i.", "value": "57.47 ± 23.83", "unit": "%ID/g"}, {"measurement": "Organ distribution Liver", "setting": "[3]; 2 h p.i.", "value": "0.87 ± 0.34", "unit": "%ID/g"}, {"measurement": "Organ distribution Lung", "setting": "[3]; 2 h p.i.", "value": "1.11 ± 0.42", "unit": "%ID/g"}, {"measurement": "Organ distribution Muscle", "setting": "[3]; 2 h p.i.", "value": "0.66 ± 0.30", "unit": "%ID/g"}, {"measurement": "Organ distribution Spleen", "setting": "[3]; 2 h p.i.", "value": "2.08 ± 0.90", "unit": "%ID/g"}, {"measurement": "Organ distribution Tumor", "setting": "[3]; 2 h p.i.", "value": "5.85 ± 0.91", "unit": "%ID/g"}, {"measurement": "specific cell surface binding", "setting": "[4]", "value": "25.51 ± 9.73", "unit": "%ID/10^5 LNCaP cells"}, {"measurement": "specific internalization rate", "setting": "[4]", "value": "27.64 ± 12.80", "unit": "%ID/10^5 LNCaP cells"}]}, {"compound": "CC1(C)C(/C=C/C=C/C=C/C=C2\\N(CCCCS(=O)(=O)O)c3ccc4ccccc4c3C2(C)C)=[N+](CCCCS(=O)(=O)[O-])c2ccc3ccccc3c21", "note": "[indocyanine green]", "values": [{"measurement": "human serum albumin binding", "setting": "[5]", "value": "prone to human serum albumin binding"}]}]}
